Legend:
PC3 cells [1] = test: Cell cycle analysis (propidium iodide), PC3; assay type: cell-based, Human; details: PC3, 48 h at GI50 dose
Description: (§1) Cells were harvested after 48 h drug treatments and DNA distribution analysis of cells stained with propidium iodide solution (propidium iodide 25 µg/mL, Na-Citrate 3.4 mM, NaCl 9.65 mM, NP-40 0.03%) was performed by an Epics cytofluorimeter (Beckman Coulter Srl, Milan, Italy).

PC3 cells [2] = test: RT-qPCR gene transcription, PC3; assay type: cell-based, Human; details: PC3, 48 h at GI50 dose
Description: (§2) Data are presented as relative transcript levels, normalized with RPL21 housekeeping gene, with DMSO levels arbitrarily set at 1.
(§3) RNA was extracted from cells using RNeasy kit (Qiagen, Venlo, The Netherlands) and reversed transcribed with a Moloney murine leukemia virus reverse transcriptase (Promega, Madison, WI, USA). Quantitative real-time PCRs were performed using SsoAdvanced Universal SYBR Green Supermix (Bio-Rad, Hercules, CA, USA) on a Bio-Rad CFX Connect™ real-time PCR detection system. Primer sequences are available upon request. The housekeeping gene Rpl21 was used as a loading control. The relative fold change enrichments of real-time PCR samples were calculated with the formula 2^−(ΔΔCt), where −(ΔΔCt) = −[(Ct target − Ct Rpl21)treated − (Ct target − Ct Rpl21)DMSO].

PC3 cells [3] = test: Anchorage-independent colony formation assay, PC3; assay type: cell-based, Human; details: PC3, 5 µM
Description: For anchorage-independent colony formation assay, 0.6% low melt agarose gel with 10% FBS in appropriate complete cell growth medium was prepared and added to the wells of a twelve-well culture dish as a base agar. […] PC3 and DU145 cells were allowed to grow at 37 °C for three weeks (PC3) or five weeks (DU145). The effect of the drugs on anchorage-independent growth was determined by colony growth. Colonies were stained with 0.07% crystal violet and formed colonies were imaged. The numbers of colonies with radius ≥ 7 pixels were counted with automated colony counter (OpenCFU 3.9.0) and average number of colonies was plotted against drug concentrations. Colony numbers were normalized as a percentage of colonies formed following DMSO treatment.

[4] = Antioxidant activity (DPPH assay); details: [DPPH] = 60 µM, methanol, 120 min; read-out: IC50, DPPH radical scavenging
Description: The antioxidant activity of the compounds was evaluated in terms of hydrogen donating or radical scavenging ability, using the stable DPPH radical (1,1-diphenyl-2-picrylhydrazyl radical). A variable amount (15, 30, 45, 75, 105, and 150 µL) of a methanol solution (1.2 mM) of each compound was placed in a cuvette, and 3 mL of a 60 µM methanol solution of DPPH was added. Absorbance measurements were initiated immediately. The decrease in absorbance at 517 nm was monitored every minute up to 5′, then every 5′ up to 30′ and every 30′ until reaction reaches completion and absorbance stabilizes attaining a plateau after 120′. Methanol was used to zero the spectrophotometer. The absorbance of the DPPH radical without K3F compound, i.e., the control, was measured daily, and concentration was calculated applying Equation (2) (2) [DPPH^·]=A−1.006/10970
The percentage of inhibition (%In) of the DPPH radical by each sample was calculated according to the formula (3) %In=A0−At/A0×100 where A0 represents the absorbance of the control (DPPH radical) at time 0, while At refers to the absorbance of the mixture DPPH/antioxidant at time t (120 min). Values of absorbance were corrected taking into account volume dilution and all determinations were performed in triplicate.

DU145 cells [5] = test: MTT cell viability assay, DU145; assay type: cell-based, Human; details: Homo sapiens, DU-145; 48 h treatment, MTT
Description: Human prostate cancer PC3 cells (CRL 1435, ATCC, Manassas, VA, USA) were grown in Ham’s F12 nutrient medium, human prostate cancer DU145 cells (HTB-81, ATCC, Manassas, VA, USA) in RPMI 1640 medium and human colorectal carcinoma HCT116 cells (CCL-247, ATCC, Manassas, VA, USA) in IMDM medium. All media (Biowest, Nuaillé, France) were supplemented with 10% Foetal Bovine Serum (Gibco-Thermo Fisher Scientific, Waltham, MA, USA), L-glutamine, penicillin, and streptomycin (Euroclone, Milan, Italy), and grown at 37 °C in a humidified 5% CO2 atmosphere.
DMSO was used as control.
The inhibition of cell proliferation was measured by colorimetric MTT assay and the concentration at which cellular growth is inhibited by 50% (GI50) was determined. Briefly, cells were seeded into 96-well plates at a density of 2000 cells/well. The following day, cells were treated with the indicated compounds and analyzed for cell viability after 48 h. 5 mg/mL thiazolyl blue tetrazolium bromide (Sigma-Aldrich, St. Louis, MO, USA) was added to each well at a final concentration of 0.5 mg/mL and the plates were incubated at 37 °C for 2 h. Medium containing unconverted MTT was removed and 100 µL MTT solvent (4 mM HCl, 0.1% NP-40 in isopropyl alcohol) was added to each well. The plate was gently rotated on an orbital shaker in the dark for 15 min, before the measurements of absorbance at 570 nm. The viability of untreated cells was arbitrarily set at 100%.

DU145 cells [6] = test: Cell cycle analysis (propidium iodide), DU145; assay type: cell-based, Human; details: DU145, 48 h at GI50 dose
Description: as §1

DU145 cells [7] = test: Anchorage-dependent colony formation assay, DU145; assay type: cell-based, Human; details: DU145, 10 days, different doses
Description: For anchorage-dependent colony formation assay, 1000 PC3 or 500 DU145 cells were plated in 6-well plates. […] After 7–10 days, the plates were washed, fixed and stained with 0.5% crystal violet solution in 20% Methanol. […] Colony numbers were normalized as a percentage of colonies formed following DMSO treatment.

[8] = Lipophilicity (data not shown); assay type: physicochemical
PC3 cells [9] = test: Cell migration (wound) assay, PC3; assay type: cell-based, Human; details: PC3, GI50 dose, 40 h
Description: 4 × 10^5 prostate cancer cells were plated in a 12-well plate. Approximately 24 h later, when the cells were 100% confluent, the monolayer was scratched using a 200 µL pipette tip. […] Three biological replicates were performed. Three random pictures were taken for each treated well per experiment and the areas of the wounds measured using ImageJ software. The percentage of wound recovery was then calculated using the formula: (final area-initial area)/initial area × 100%.

DU145 cells [10] = test: RT-qPCR gene transcription, DU145; assay type: cell-based, Human; details: DU145, 48 h at GI50 dose
Description: as §2, §3

PC3 cells [11] = test: Western blot of total cellular lysates, PC3; assay type: cell-based, Human; details: PC3, 48 h at GI50 dose
Description: Actin was used as loading control. Whole-cell protein extracts were prepared by resuspending cells into 1X SDS sample buffer (25 mM Tris-HCl pH 6.8, 1.5 mM EDTA, 20% glycerol, 2% SDS, 5% β-mercaptoethanol, 0.0025% Bromophenol blue). Equivalent amounts of cellular extracts were resolved by SDS-PAGE, electrotransferred to PVDF membrane (GE Healthcare Italia, Milan, Italy) and immunoblotted with the following primary antibodies: anti-phospo-H2AX (sc-101696), anti-p53 (DO1) (sc-126), anti-actin ([MUT]) (sc-1616) and anti-PARP (sc-8007) antibody from Santa Cruz Biotecnology, Inc, Dallas, TX, USA.; phospho-specific AKT antibody S473 (#9018) and T308 (#9275), Akt antibody (#9272 and #2967), phospho-specific ERK1/2 antibody T202/Y204 (#4370), ERK1/2 antibody (#4669), phospho-specific p38 MAPK antibody T180/Y182 (#9211), and p38 antibody (#9212) were purchased from Cell Signaling Technologies, Danvers, MA, USA. Membranes were blotted and scanned with Bio-Rad ChemiDocTM Touch Imaging System (Bio-Rad, Hercules, CA, USA), using chemiluminescent detection reagents from Cyanagen, Bologna, Italy (Westar ηC and Supernova HRP substrates for Western blotting).

[12] = compared to curcumin and control cells

With `COc1cc(/C=C/C(=O)C(CCCN2C(=O)c3ccccc3C2=O)C(=O)/C=C/c2ccc(O)c(OC)c2)ccc1O` [K3F21] the “effect on cell cycle distribution (in words)” value (PC3 cells [1]) was “doubled the percentage of G2/M cells”, the “Bcl-2 / Bcl-xl transcription” value (PC3 cells [2]) was “Bcl-2, but not Bcl-xl, was weakly repressed” and the Noxa transcription (PC3 cells [2]) was “induced”. For the same compound, the Puma transcription (PC3 cells [2]) was “increased exclusively following K3F21 administration”, the “transcription of CDK inhibitors p21 and p27” value (PC3 cells [2]) was “increased” and the “transcription of Cdc2, CyclinB1, CyclinB2, and CyclinD1 cell cycle genes” value (PC3 cells [2]; [12]) was “general decrease, though not always significant”. The “decrease in colony formation, anchorage-independent” value (PC3 cells [3]) was “up to 95%”, the IC50 [4] was 24 µM and the GI50 (DU145 cells [5]) was 8.6 µM. The “effect on cell cycle distribution (in words)” value (DU145 cells [6]) was “both arrested the G2/M progression and induced cell death”, the anchorage-dependent colony growth (DU145 cells [7]) was “clearly inhibited cell growth when administered at lower concentrations than curcumin” and the lipophilicity [8] was “high”. The “cell migration (wound recovery)” value (PC3 cells [9]) was “exerted inhibitory effects on the migratory capacity”, the EGFR expression (DU145 cells [10]) was “reduced” and the Noxa transcription (DU145 cells [10]) was “induced”. For the same compound, the Puma transcription (DU145 cells [10]) was “increased exclusively following K3F21 administration”, the “transcription of CDK inhibitors p21 and p27” value (DU145 cells [10]) was “raised only after K3F21 treatment” and the “transcription of Cdc2, CyclinB1, CyclinB2, and CyclinD1 cell cycle genes” value (DU145 cells [10]; [12]) was “general decrease, though not always significant”. The ERK1/2 phosphorylation (PC3 cells [11]) was “increased”, the phospho-p38 expression (PC3 cells [11]) was “inhibited” and the “phosphorylation of AKT in Ser473 and Thr308” value (PC3 cells [11]) was “inhibited”. The “γH2AX expression (marker of DNA damage)” value (PC3 cells [11]) was “triggered DNA damage”.

Source: publication PMC6337497 (International Journal of Molecular Sciences, 2018)
